Measured values as given in patent US20250032527A1, “MEDICAL USE OF N4-HYDROXY CITICOLINE COMPOUNDS” (IMMUNIC AG, priority 2021, published 2025).

Key:
in vitro [1] = settings: dog, MDCK cells
[2] = system: human rhinovirus 14 (HRV-14); assay: microbe, parasite or virus in culture; settings: Rhinovirus B, HRV14, HeLa
physchem [3] = settings: pH 7.4
in vitro [4] = settings: human, HeLa cells
physchem [5] = settings: fassgf or other biorelevant, kinetic from dmso stock
Caco-2 = assay: A-B permeability (Caco-2, pH 6.5/7.4); settings: low solubility, high permeability
[6] = A-B permeability (Caco-2, pH 6.5/7.4); settings: human, A-B, Caco-2, pH 6.5/7.4, test conc. 1.0E−05M
[7] = system: respiratory syncytial virus (RSV) A2; assay: microbe, parasite or virus in culture; settings: human respiratory syncytial virus, MA104
[8] = system: influenza A (H1N1, California/07/2009); assay: microbe, parasite or virus in culture; settings: H1N1, MDCK
physchem [9] = settings: pH 7.4, aqueous buffer, kinetic from dmso stock
SARS-COV-2 = assay: microbe, parasite or virus in culture; assay type: cell-based; settings: Severe acute respiratory syndrome coronavirus 2
[10] = B-A permeability (Caco-2, pH 6.5/7.4); settings: human, test conc. 1.0E−05M
physchem [11] = settings: simulated gastric fluid
in vitro [12] = settings: human
in vitro [13] = settings: African green monkey, MA-104 cells
SARS-COV-2 d6-YFP = assay: Combinatorial drug assessment by viral replication inhibition assay (CompuSyn); assay type: cell-based
HRV-14 = HRV-14 virus titers by endpoint titration (CCID50), mono and combination; assay type: cell-based; settings: for HRV-14 Virus Titers: Hela cells, virus control 6.7
RSV A2 = assay: RSV virus titers by endpoint titration (CCID50), mono and combination; assay type: cell-based; settings: for RSV Virus Titers: MA-104 cells, virus control 4.0
[14] = Caco-2, pH 6.5, Percent Recovery 1st
[15] = Caco-2, pH 6.5, Percent Recovery 2nd
[16] = Caco-2, pH 6.5, Percent Recovery Mean
[17] = Caco-2, pH 6.5, Permeability 1st
[18] = Caco-2, pH 6.5, Permeability 2nd
[19] = Caco-2, pH 6.5, Permeability Mean
[20] = Example 1 combined with a DHODH inhibitor

## C[N+](C)(C)CCOP(=O)([O-])OP(=O)([O-])OC[C@H]1O[C@@H](n2ccc(NO)nc2=O)[C@H](O)[C@@H]1O.[Na+] [Example 1, 2-(((((((2R,3S,4R,5R)-3,4-Dihydroxy-5-(4-(hydroxyamino)-2-oxopyrimidin-1 (2H)-yl)tetrahydrofuran-2-yl)methoxy) (hydroxy)phosphoryl)oxy)oxidophosphoryl)oxy)-N,N,N-trimethylethan-1-aminium mono sodium salt]
In vitro [1]
  CC50: 25 µM
[2]
  EC50: 4.7 µM
Physchem [3]
  logD: 0.52
In vitro [4]
  CC50: > 25 µM
Physchem [5]; Solubility 1st
  solubility: 13.9 µM
Physchem [5]; Solubility 2nd
  solubility: 18.3 µM
Physchem [5]; Solubility Mean
  solubility: 16.1 µM
Caco-2
  biopharmaceutics classification: Class Il
[6]; [14]
  recovery at 10 µM: 121%
[6]; [15]
  recovery at 10 µM: 115%
[6]; [16]
  recovery at 10 µM: 118%
[6]; [17]
  Papp at 10 µM: 36.1 ×10⁻⁶ cm/s
[6]; [18]
  Papp at 10 µM: 30.7 ×10⁻⁶ cm/s
[6]; [19]
  Papp at 10 µM: 33.4 ×10⁻⁶ cm/s
[7]
  EC50: 1.1 µM
[8]
  EC50: 4.8 µM
Physchem [9]; Solubility 1st
  solubility: 14.2 µM
Physchem [9]; Solubility 2nd
  solubility: 14.4 µM
Physchem [9]; Solubility Mean
  solubility: 14.3 µM
SARS-COV-2
  EC50: < 10 µM
[10]; [14]
  recovery at 10 µM: 91%
[10]; [15]
  recovery at 10 µM: 83%
[10]; [16]
  recovery at 10 µM: 87%
[10]; [17]
  Papp at 10 µM: 26.1 ×10⁻⁶ cm/s
[10]; [18]
  Papp at 10 µM: 21.2 ×10⁻⁶ cm/s
[10]; [19]
  Papp at 10 µM: 23.7 ×10⁻⁶ cm/s
Physchem [11]; Solubility 1st
  solubility: < 1 µM
Physchem [11]; Solubility 2nd
  solubility: < 1 µM
Physchem [11]; Solubility Mean
  solubility: < 1 µM
In vitro [12]
  CC50: > 100 µM
In vitro [13]
  CC50: 2.4 µM
SARS-COV-2 d6-YFP
  combinatorial antiviral effect: synergistic
HRV-14; Conc. 0.0079 μM
  HRV-14 Virus Titers: 6.7 CCID50/mL (Log10)
HRV-14; Conc. 0.025 μM
  HRV-14 Virus Titers: 6.7 CCID50/mL (Log10)
HRV-14; Conc. 0.079 μM
  HRV-14 Virus Titers: 6.7 CCID50/mL (Log10)
HRV-14; Conc. 0.25 μM
  HRV-14 Virus Titers: 7.0 CCID50/mL (Log10)
HRV-14; Conc. 0.79 μM
  HRV-14 Virus Titers: 6.7 CCID50/mL (Log10)
HRV-14; Conc. 2.5 μM
  HRV-14 Virus Titers: 6.0 CCID50/mL (Log10)
HRV-14; Conc. 7.9 μM
  HRV-14 Virus Titers: 4.7 CCID50/mL (Log10)
HRV-14; Conc. 25 μM
  HRV-14 Virus Titers: 3.5 CCID50/mL (Log10)
HRV-14; [20]
  combination behavior on HRV-14: synergistic
RSV A2; Conc. 0.0079 μM
  RSV Virus Titers: 4.5 CCID50/mL (Log10)
RSV A2; Conc. 0.025 μM
  RSV Virus Titers: 4.0 CCID50/mL (Log10)
RSV A2; Conc. 0.079 μM
  RSV Virus Titers: 3.5 CCID50/mL (Log10)
RSV A2; Conc. 0.25 μM
  RSV Virus Titers: 4.0 CCID50/mL (Log10)
RSV A2; Conc. 0.79 μM
  RSV Virus Titers: 4.0 CCID50/mL (Log10)
RSV A2; Conc. 2.5 μM
  RSV Virus Titers: 3.5 CCID50/mL (Log10)
RSV A2; Conc. 7.9 μM
  RSV Virus Titers: 3.5 CCID50/mL (Log10)
RSV A2; Conc. 25 μM
  RSV Virus Titers: 3.5 CCID50/mL (Log10)
RSV A2; [20]
  combination behavior on RSV: synergistic
